Where two headings read alike, the source gives them in different places.
Test: Determination of inhibitor concentration in mouse plasma after intraperitoneal and oral dosing
Assay type: in vivo
Experimental: Blood collection was via ocular bleed at 0.5, 1, 4 hr with the final time point, 7 hour, via intracardiac puncture. The blood was centrifuged to collect plasma, which was then stored at −80° C. until analysis. Samples were prepared for analysis using an internal standard and sodium hydroxide. After vortexing, ethyl acetate was added and mixed for 15-20 minutes at ambient temperature. […] The samples were then analyzed via HPLC or LC-MS. Compound levels were quantitated by generating a standard curve of known compound concentration in mouse plasma.

[1] = female, PO, 8 mg/kg, vehicle 0.5% CMC
[2] = female, PO, 8 mg/kg, vehicle 0.5% CMC, read-out: Cmax
[3] = female, PO, 8 mg/kg, vehicle 0.5% CMC, read-out: Cmin (7 hr conc.)
[4] = female, PO, 40 mg/kg, vehicle 0.5% CMC
[5] = female, PO, 40 mg/kg, vehicle 0.5% CMC, read-out: Cmax
[6] = female, PO, 40 mg/kg, vehicle 0.5% CMC, read-out: Cmin (7 hr conc.)
[7] = female, PO, 200 mg/kg, vehicle 0.5% CMC
[8] = female, PO, 200 mg/kg, vehicle 0.5% CMC, read-out: Cmax
[9] = female, PO, 200 mg/kg, vehicle 0.5% CMC, read-out: Cmin (7 hr conc.)
[10] = PO, 25 mg/kg, vehicle PEG400:H2O pH 2.3 30:70
[11] = female, PO, 25 mg/kg, vehicle 0.5% CMC
[12] = female, PO, 25 mg/kg, vehicle 0.5% CMC, read-out: Cmax
[13] = female, PO, 25 mg/kg, vehicle 0.5% CMC, read-out: Cmin (7 hr conc.)
[14] = IP, 25 mg/kg, vehicle PEG400:H2O pH 2.3 30:70
[15] = PO, 50 mg/kg, vehicle PEG400:H2O pH 2.3 30:70

Cc1cc(C(=O)Nc2cc(Nc3ccc4c(/C=C/c5ccccn5)n[nH]c4c3)ccc2F)n(C)n1.Cl [Example 59(d), 6-[N-(3-((1,3-Dimethyl-1H-pyrazol-5-yl)carboxamido)4-fluoro-phenyl)amino]-3-E-[2-(pyridin-2-yl)ethenyl]-1H-indazole Hydrochloride]
AUC(0-t) [1]: > 24700 ng·h/mL
Cmax [2]: > 5000 ng/mL
concentration at 7 h [3]: 1900 ng/mL
AUC(0-t) [4]: > 32300 ng·h/mL
Cmax [5]: > 5000 ng/mL
concentration at 7 h [6]: 4140 ng/mL
AUC(0-t) [7]: > 123000 ng·h/mL
Cmax [8]: > 20000 ng/mL
concentration at 7 h [9]: 12700 ng/mL

Cc1cc(C(=O)Nc2cc(C(=O)c3ccc4c(/C=C/c5ccccn5)n[nH]c4c3)ccc2C)n(C)n1 [Example 41(hh), 6-[3-((1,3-Dimethyl-1H-pyrazol-5-yl)carboxaindo)-4-methylbenzoyl]-3-E-[2-(pyridin-2-yl)ethenyl]-1H-indazole]
AUClast [10]: 5601 ng·h/mL
Cmax [10]: 1526 ng/mL
plasma half-life (T1/2) [10]: 7.9 h
concentration at 7 h (female, PO, 25 mg/kg, vehicle PEG400:H2O pH 2.3 30:70, read-out: Cmin (7 hr conc.)): 405 ng/mL

CCn1nc(C)cc1C(=O)Nc1cc(Nc2ccc3c(/C=C/c4ccccn4)n[nH]c3c2)c(F)cc1C.Cl [Example 59(c), 6-[N-(5-((1-Ethyl-3-methyl-1H-pyrazol-5-yl)carboxamido)-2-fluoro-4-methylphenyl)amino]-3-E-[2-(pyridin-2-yl)ethenyl]-1H-indazole Hydrochloride]
AUC(0-t) (female, PO, 25 mg/kg, vehicle CMC): 327000 ng·h/mL
Cmax (female, PO, 25 mg/kg, vehicle CMC, read-out: Cmax): 50000 ng/mL

CCn1nc(C)cc1C(=O)Nc1cccc(Oc2ccc3c(/C=C/c4ccccn4)n[nH]c3c2)c1.Cl [Example 59(e), 6-[3-((1-Ethyl-3-methyl-1H-pyrazol-5-yl)carboxamido)phenoxy]-3-E-[2-(pyridin-2-yl)ethenyl]-1H-indazole Hydrochloride]
plasma half-life (T1/2) (PO, 25 mg/kg, vehicle 0.5% CMC): 21 h
AUC(0-t) [11]: 12500 ng·h/mL
Cmax [12]: 28800 ng/mL
concentration at 7 h [13]: 2140 ng/mL

CC(C)NC(=O)c1ccccc1Sc1ccc2c(/C=C/c3ccccn3)n[nH]c2c1 [Example 35(b), 6-[2-(i-Propylcarbamoyl)phenylsulfanyl]-3-E-[2-(pyridin-2-yl)ethenyl]-1H-indazole]
AUClast [14]: 2840 ng·h/mL
plasma half-life (T1/2) [14]: 0.8 h
AUClast [15]: 4048 ng·h/mL
plasma half-life (T1/2) [15]: 0.8 h
concentration at 7 h (female, IP, 25 mg/kg, vehicle PEG400:H2O pH 2.3 30:70, read-out: Cmin (7 hr conc.)): 12 ng/mL
concentration at 7 h (female, PO, 50 mg/kg, vehicle PEG400:H2O pH 2.3 30:70, read-out: Cmin (7 hr conc.)): 13 ng/mL

CCn1nc(C)cc1C(=O)Nc1cccc(C(=O)c2ccc3c(/C=C/c4ccccn4)n[nH]c3c2)c1.Cl [Example 59(a), 6-[3-((1-Ethyl-3-methyl-1H-pyrazol-5-yl)carboxamido)benzoyl]-3-E-[2-(pyridin-2-yl)ethenyl]-1H-indazole Hydrochloride]
plasma half-life (T1/2) (PO, 8 mg/kg, vehicle 0.5% CMC): 1.5 h
plasma half-life (T1/2) (PO, 40 mg/kg, vehicle 0.5% CMC): 2.4 h
plasma half-life (T1/2) (PO, 200 mg/kg, vehicle 0.5% CMC): 9.4 h
AUC(0-t) [1]: 7710 ng·h/mL
Cmax [2]: 2490 ng/mL
concentration at 7 h [3]: 122 ng/mL
AUC(0-t) [11]: 50800 ng·h/mL
Cmax [12]: 15900 ng/mL
concentration at 7 h [13]: 1200 ng/mL
AUC(0-t) [4]: 57200 ng·h/mL
Cmax [5]: 13800 ng/mL
concentration at 7 h [6]: 1880 ng/mL
AUC(0-t) [7]: 156000 ng·h/mL
Cmax [8]: 30000 ng/mL
concentration at 7 h [9]: 12100 ng/mL

CC(C)COC(=O)Nc1cccc(C(=O)c2ccc3c(/C=C/c4ccccn4)n[nH]c3c2)c1 [Example 41(y)]
AUClast [10]: Blq
Cmax [10]: Blq
Cmin (7 hr conc.) [10]: blq
plasma half-life (T1/2) [10]: blq

Cc1cc(C(=O)Nc2cccc(C(=O)c3ccc4c(/C=C/c5ccccn5)n[nH]c4c3)c2)n(C)n1.Cl [Example 59(b), 6-[3-((1,3-Dimethyl-1H-pyrazol-5-yl)carboxamido)benzoyl]-3-E-[2-(pyridin-2-yl)ethenyl]-1H-indazole Hydrochloride]
AUC(0-t) (female, PO, 50 mg/kg, vehicle CMC): 276000 ng·h/mL
concentration at 7 hr (female, PO, 50 mg/kg, vehicle CMC, read-out: Cmin (7 hr conc.)): 26900 ng/mL

— patent US6534524B1, “Indazole compounds and pharmaceutical compositions for inhibiting protein kinases, and methods for their use” (Agouron Pharmaceuticals, Inc., priority 1999, dated 2003)
